These results are taken from patent publication US11447466B2, “Substituted indole compounds useful as inhibitors of TLR7/8/9” (BRISTOL-MYERS SQUIBB COMPANY, priority 2017, dated 2022).

What all share (type): cell-based
One assay has as its target T1, human TLR9 (Homo sapiens, UniProt Q9NR96).
T1 construct: host or cells: HEK-Blue cells
T1 sequence (Q9NR96 26-1032): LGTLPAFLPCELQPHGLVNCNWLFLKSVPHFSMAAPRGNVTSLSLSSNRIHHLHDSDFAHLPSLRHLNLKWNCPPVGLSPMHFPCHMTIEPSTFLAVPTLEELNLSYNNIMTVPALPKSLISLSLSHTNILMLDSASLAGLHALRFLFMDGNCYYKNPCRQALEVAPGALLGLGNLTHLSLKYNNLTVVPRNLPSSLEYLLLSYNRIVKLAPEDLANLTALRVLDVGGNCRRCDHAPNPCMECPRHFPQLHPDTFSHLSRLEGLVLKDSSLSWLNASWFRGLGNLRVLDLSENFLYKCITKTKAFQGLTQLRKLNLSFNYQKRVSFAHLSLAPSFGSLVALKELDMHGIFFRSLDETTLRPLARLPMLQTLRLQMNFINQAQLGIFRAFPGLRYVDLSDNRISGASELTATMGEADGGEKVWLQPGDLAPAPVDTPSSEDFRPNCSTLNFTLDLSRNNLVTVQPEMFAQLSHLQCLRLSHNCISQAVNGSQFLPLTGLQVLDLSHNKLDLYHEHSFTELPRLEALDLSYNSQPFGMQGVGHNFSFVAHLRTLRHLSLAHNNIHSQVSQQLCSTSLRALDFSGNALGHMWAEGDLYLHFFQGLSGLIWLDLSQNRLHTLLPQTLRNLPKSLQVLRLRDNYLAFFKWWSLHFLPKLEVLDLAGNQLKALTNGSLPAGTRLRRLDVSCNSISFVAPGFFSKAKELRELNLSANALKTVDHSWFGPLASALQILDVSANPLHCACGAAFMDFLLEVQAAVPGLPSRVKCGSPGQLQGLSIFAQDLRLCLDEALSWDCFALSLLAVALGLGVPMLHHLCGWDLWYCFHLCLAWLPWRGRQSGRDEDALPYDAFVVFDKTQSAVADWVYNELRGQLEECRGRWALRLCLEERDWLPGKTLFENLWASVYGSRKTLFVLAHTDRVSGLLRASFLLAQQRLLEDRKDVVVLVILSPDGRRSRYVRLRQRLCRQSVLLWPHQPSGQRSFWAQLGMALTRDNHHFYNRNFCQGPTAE
Nature of the assay: TLR9 inhibition reporter assay (HEK-Blue SEAP reporter, ODN2006 stimulation). The following applies: HEK-Blue cells overexpressing human TLR9, SEAP reporter, ODN2006 5 nM, 22 hour incubation. The method, boiled down:
(§1)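 Dose–response from 0.05 nM to 50 μM was run in HEK-Blue human TLR7, TLR8 and TLR9 reporter cells. After 30 min at room temperature with compound, ligand was added (TLR7 gardiquimod 7.5 μM; TLR8 R848 15.9 μM; TLR9 ODN2006 5 nM) and SEAP measured next day, at 22 h.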
A general note: Reporter assays use an easily measured gene product as a stand-in for the process of interest.

The next assay concerns the target T2, human TLR7 (Homo sapiens, UniProt Q9NYK1).
T2 construct: host or cells: HEK-Blue cells
T2 sequence (Q9NYK1 27-1049): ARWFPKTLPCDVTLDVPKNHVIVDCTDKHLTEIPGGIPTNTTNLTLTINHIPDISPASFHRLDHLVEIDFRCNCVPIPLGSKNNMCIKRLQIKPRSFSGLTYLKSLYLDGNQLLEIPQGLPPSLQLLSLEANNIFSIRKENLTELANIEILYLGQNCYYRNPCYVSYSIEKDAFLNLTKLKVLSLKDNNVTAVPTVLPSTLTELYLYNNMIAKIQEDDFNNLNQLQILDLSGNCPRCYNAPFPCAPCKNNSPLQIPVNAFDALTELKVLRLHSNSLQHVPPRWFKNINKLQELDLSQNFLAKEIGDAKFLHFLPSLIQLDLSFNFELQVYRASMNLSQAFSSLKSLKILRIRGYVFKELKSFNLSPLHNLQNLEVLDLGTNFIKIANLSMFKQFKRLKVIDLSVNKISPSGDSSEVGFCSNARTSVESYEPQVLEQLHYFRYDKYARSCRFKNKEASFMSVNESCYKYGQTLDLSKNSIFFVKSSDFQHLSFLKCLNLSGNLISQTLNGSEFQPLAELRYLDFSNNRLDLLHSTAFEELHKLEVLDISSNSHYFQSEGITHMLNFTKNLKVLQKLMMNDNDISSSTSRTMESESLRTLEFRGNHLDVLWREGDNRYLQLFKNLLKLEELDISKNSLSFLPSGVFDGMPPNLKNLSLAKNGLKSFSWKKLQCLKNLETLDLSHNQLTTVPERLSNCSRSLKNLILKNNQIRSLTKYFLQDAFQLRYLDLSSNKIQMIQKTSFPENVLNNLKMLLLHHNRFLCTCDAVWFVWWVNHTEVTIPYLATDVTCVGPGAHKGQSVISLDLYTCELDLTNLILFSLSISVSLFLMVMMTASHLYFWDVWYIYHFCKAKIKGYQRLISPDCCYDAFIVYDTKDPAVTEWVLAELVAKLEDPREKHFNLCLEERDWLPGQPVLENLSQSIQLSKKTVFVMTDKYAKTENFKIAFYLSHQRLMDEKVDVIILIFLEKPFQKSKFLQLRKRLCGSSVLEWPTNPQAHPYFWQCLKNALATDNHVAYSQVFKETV
The assay can be described thus: TLR7 inhibition reporter assay (HEK-Blue SEAP reporter, gardiquimod stimulation). The following applies: HEK-Blue cells overexpressing human TLR7, SEAP reporter, gardiquimod 7.5 μM, 22 hour incubation. The method, boiled down: as §1

A further assay addresses T3, human TLR8 (Homo sapiens, UniProt Q9NR97).
T3 construct: host or cells: HEK-Blue cells
T3 sequence (Q9NR97 27-1041): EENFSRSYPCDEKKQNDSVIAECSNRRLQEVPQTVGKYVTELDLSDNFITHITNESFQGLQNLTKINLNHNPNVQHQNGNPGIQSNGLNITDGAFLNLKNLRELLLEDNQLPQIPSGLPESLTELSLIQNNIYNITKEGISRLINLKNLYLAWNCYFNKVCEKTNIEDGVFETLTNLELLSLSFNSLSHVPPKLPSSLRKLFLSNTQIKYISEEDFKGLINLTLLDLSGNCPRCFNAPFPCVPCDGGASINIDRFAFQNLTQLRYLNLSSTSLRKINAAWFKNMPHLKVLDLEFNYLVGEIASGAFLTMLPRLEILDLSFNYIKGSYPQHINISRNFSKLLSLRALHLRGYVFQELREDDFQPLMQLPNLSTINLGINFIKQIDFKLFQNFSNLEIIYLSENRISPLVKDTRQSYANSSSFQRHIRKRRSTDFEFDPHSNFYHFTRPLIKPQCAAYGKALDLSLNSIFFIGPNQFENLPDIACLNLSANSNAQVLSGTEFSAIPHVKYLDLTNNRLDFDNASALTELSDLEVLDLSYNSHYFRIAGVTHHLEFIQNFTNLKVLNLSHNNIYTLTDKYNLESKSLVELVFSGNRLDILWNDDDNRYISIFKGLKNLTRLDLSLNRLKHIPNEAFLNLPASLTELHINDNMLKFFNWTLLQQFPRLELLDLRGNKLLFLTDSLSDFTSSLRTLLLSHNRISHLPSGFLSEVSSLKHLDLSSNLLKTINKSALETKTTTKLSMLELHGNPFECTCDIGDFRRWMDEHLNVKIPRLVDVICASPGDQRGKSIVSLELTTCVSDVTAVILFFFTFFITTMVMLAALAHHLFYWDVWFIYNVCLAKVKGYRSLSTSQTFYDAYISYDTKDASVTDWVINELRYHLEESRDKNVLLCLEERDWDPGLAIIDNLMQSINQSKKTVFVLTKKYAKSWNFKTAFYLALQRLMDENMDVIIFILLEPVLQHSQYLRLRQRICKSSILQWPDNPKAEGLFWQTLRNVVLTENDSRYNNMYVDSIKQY
The assay can be described thus: TLR8 inhibition reporter assay (HEK-Blue SEAP reporter, R848 stimulation). The following applies: HEK-Blue cells overexpressing human TLR8, SEAP reporter, R848 15.9 μM, 22 hour incubation. The method, boiled down: as §1

`Cc1cc(-c2[nH]c3ccc(C4CCN(C5CCC(F)(F)CC5)CC4)cc3c2C(C)C)cn(C)c1=O` [Example 199, 5-(5-(1-(4,4-difluorocyclohexyl)piperidin-4-yl)-3-isopropyl-1H-indol-2-yl)-1,3-dimethylpyridin-2(1H)-one]: the IC50 against human TLR9 turned out to be 1550 nM; at human TLR7 it was 1.9 nM; on human TLR8 it was 4.2 nM.
For `CC(C)c1c(-c2cc(-c3cncnc3)c(=O)n(C)c2)[nH]c2ccc(C3CCN(CCCC(F)(F)F)CC3)cc12` [Example 104, 5-(3-isopropyl-5-(1-(4,4,4-trifluorobutyl)piperidin-4-yl)-1H-indol-2-yl)-1-methyl-3-(pyrimidin-5-yl)pyridin-2(1H)-one] the same measures were 2700 nM, 13.1 nM and 3.5 nM.
`CCc1cc(-c2[nH]c3ccc(C4CCNCC4)cc3c2C(C)C)c(C)n(CC)c1=O` [Example 35, 1,3-diethyl-5-(3-isopropyl-5-(piperidin-4-yl)-1H-indol-2-yl)-6-methylpyridin-2(1H)-one]: the IC50 against human TLR9 was determined as 574 nM; against human TLR7, 60 nM; on human TLR8, 6.8 nM.
As for `COCCN1CCC(c2ccc3[nH]c(-c4cc(-c5cnn(C)c5)c(=O)n(C)c4)c(C(C)C)c3c2)CC1` [Example 350, 5-(3-isopropyl-5-(1-(2-methoxyethyl)piperidin-4-yl)-1H-indol-2-yl)-1-methyl-3-(1-methyl-1H-pyrazol-4-yl)pyridin-2(1H)-one], the results for the IC50 against human TLR9, against human TLR7 and at human TLR8 were 2140 nM, 14.4 nM and 1.4 nM, respectively.
In the case of `Cc1cc(-c2[nH]c3ccc(C4CCN(CC(=O)N5CC[C@@H](O)C5)CC4)cc3c2C(C)C)cn(C)c1=O` [Example 120, (R)-5-(5-(1-(2-(3-hydroxypyrrolidin-1-yl)-2-oxoethyl)piperidin-4-yl)-3-isopropyl-1H-indol-2-yl)-1,3-dimethylpyridin-2(1H)-one], the IC50 is 851 nM against human TLR9, 7.4 nM on human TLR7 and 11.5 nM against human TLR8.
Turning to `CCCN1CCC(c2ccc3[nH]c(-c4cc(-c5ccc(N6CCOCC6)nc5)c(=O)n(C)c4)c(C(C)C)c3c2)CC1` [Example 330, 5-(3-isopropyl-5-(1-propylpiperidin-4-yl)-1H-indol-2-yl)-1-methyl-6′-morpholino-[3,3′-bipyridin]-2(1H)-one], the results for the IC50 at human TLR9, against human TLR7 and against human TLR8 were 705 nM, 7.7 nM and 432 nM, respectively.
Taken in the same sequence, the figures for `Cc1cc(-c2[nH]c3ccc(C4CCNCC4)cc3c2C(C)C)cn(CCCO)c1=O` [Example 38, 1-(3-hydroxypropyl)-5-(3-isopropyl-5-(piperidin-4-yl)-1H-indol-2-yl)-3-methylpyridin-2(1H)-one] were 3030 nM, 51.2 nM and 30.3 nM.
With `CC(=O)Nc1cccc(-c2cc(-c3[nH]c4ccc(C5CCNCC5)cc4c3C(C)C)cn(C)c2=O)c1` [Example 60, N-(3-(5-(3-isopropyl-5-(piperidin-4-yl)-1H-indol-2-yl)-1-methyl-2-oxo-1,2-dihydropyridin-3-yl)phenyl)acetamide], the results for the IC50 at human TLR9, against human TLR7 and at human TLR8 were 3060 nM, 90.3 nM and 211 nM, respectively.
For the compound `Cc1c(-c2[nH]c3ccc(C4CCN(C5COC5)CC4)cc3c2C(C)C)cn(C)c(=O)c1Cl` [Example 248, 3-chloro-5-(3-isopropyl-5-(1-(oxetan-3-yl)piperidin-4-yl)-1H-indol-2-yl)-1,4-dimethylpyridin-2(1H)-one], the IC50 on human TLR9 turned out to be 30000 nM; at human TLR7, 5.6 nM; against human TLR8, 16.9 nM.
With `Cc1cc(-c2[nH]c3ccc(C4CCN(C)CC4)cc3c2C(C)C)cn(CC(F)(F)F)c1=O` [Example 265, 5-(3-isopropyl-5-(1-methylpiperidin-4-yl)-1H-indol-2-yl)-3-methyl-1-(2,2,2-trifluoroethyl)pyridin-2(1H)-one], the IC50 came out at 5030 nM at human TLR9, 20.1 nM at human TLR7 and 42.6 nM against human TLR8.
Consider `CCCN1CCC(c2ccc3[nH]c(-c4cc(-c5cccc(OC)c5)c(=O)n(C)c4)c(C(C)C)c3c2)CC1` [Example 340, 5-(3-isopropyl-5-(1-propylpiperidin-4-yl)-1H-indol-2-yl)-3-(3-methoxyphenyl)-1-methylpyridin-2(1H)-one], for which the IC50 against human TLR9 was found to be 1210 nM; at human TLR7 it was 4.5 nM; against human TLR8 it was 16.6 nM.
For `Cc1c(-c2[nH]c3ccc(C4CCNCC4)cc3c2C(C)C)cn(C)c(=O)c1N` [Example 19, 3-amino-5-(3-isopropyl-5-(piperidin-4-yl)-1H-indol-2-yl)-1,4-dimethylpyridin-2(1H)-one] the same measures were 792 nM, 25.7 nM and 39.7 nM.

Usually IC50 stands for the concentration that gives 50% inhibition. A high value points to a need for much substance.
